# ± gives the uncertainty stated by the source.
# Test: xn = mol fraction of the nth substance listed
# Details: for electrical conductivity: 101 kPa, frequency 2 MHz; for viscosity: 100 kPa
structure (smiles),measurement,setting,value
O=S(=O)([O-])C(F)(F)F.[Li+] + O=S(=O)([N-]S(=O)(=O)C(F)(F)F)C(F)(F)F.[Li+] + O,electrical conductivity,"298.1 K, x2 = 0.00893, x1 = 0.003054",2.76 ± 0.028 S/m
same,electrical conductivity,"298.1 K, x2 = 0.01246, x1 = 0.004127",3.46 ± 0.035 S/m
same,electrical conductivity,"298.1 K, x2 = 0.01596, x1 = 0.005377",4.045 ± 0.04 S/m
same,electrical conductivity,"298.1 K, x2 = 0.01944, x1 = 0.006623",4.522 ± 0.045 S/m
same,electrical conductivity,"298.1 K, x2 = 0.05129, x1 = 0.0177",6.08 ± 0.061 S/m
same,electrical conductivity,"298.1 K, x2 = 0.08265, x1 = 0.02921",5.326 ± 0.053 S/m
same,electrical conductivity,"298.1 K, x2 = 0.112, x1 = 0.04029",4.123 ± 0.041 S/m
same,electrical conductivity,"298.1 K, x2 = 0.1395, x1 = 0.05129",3.035 ± 0.03 S/m
same,electrical conductivity,"298.1 K, x2 = 0.1654, x1 = 0.06203",2.18 ± 0.022 S/m
same,electrical conductivity,"298.1 K, x2 = 0.1898, x1 = 0.07238",1.55 ± 0.016 S/m
same,electrical conductivity,"298.1 K, x2 = 0.2128, x1 = 0.08265",1.09 ± 0.011 S/m
same,electrical conductivity,"298.1 K, x2 = 0.2345, x1 = 0.0927",0.768 ± 0.008 S/m
same,electrical conductivity,"298.1 K, x2 = 0.2551, x1 = 0.1024",0.537 ± 0.005 S/m
same,electrical conductivity,"298.1 K, x2 = 0.2745, x1 = 0.112",0.374 ± 0.004 S/m
same,viscosity,"298.15 K, x1 = 0.04029, x2 = 0.1114",7.5 ± 0.6 mPa·s
same,viscosity,"298.15 K, x1 = 0.07222, x2 = 0.1893",29.1 ± 2.3 mPa·s
same,viscosity,"298.15 K, x1 = 0.09226, x2 = 0.2336",69 ± 6 mPa·s
same,viscosity,"298.15 K, x1 = 0.1024, x2 = 0.2553",98 ± 8 mPa·s
same,viscosity,"298.15 K, x1 = 0.1122, x2 = 0",3.7 ± 0.3 mPa·s
same,viscosity,"298.15 K, x1 = 0.1122, x2 = 0.2745",152 ± 13 mPa·s
same,viscosity,"298.15 K, x1 = 0.1783, x2 = 0",9.2 ± 0.7 mPa·s
same,viscosity,"298.15 K, x1 = 0.2388, x2 = 0",21.9 ± 1.8 mPa·s
same,viscosity,"298.15 K, x1 = 0.2541, x2 = 0",31.8 ± 2.6 mPa·s
same,viscosity,"298.15 K, x1 = 0.2743, x2 = 0",47.2 ± 3.8 mPa·s
same,electrical conductivity,"303 K, x2 = 0.001799, x1 = 0.0005943",0.867 ± 0.009 S/m
same,electrical conductivity,"303 K, x2 = 0.005377, x1 = 0.001799",2.117 ± 0.021 S/m
same,electrical conductivity,"303 K, x2 = 0.00893, x1 = 0.003054",3.1 ± 0.031 S/m
same,electrical conductivity,"303 K, x2 = 0.01246, x1 = 0.004127",3.9 ± 0.039 S/m
same,electrical conductivity,"303 K, x2 = 0.01596, x1 = 0.005377",4.56 ± 0.046 S/m
same,electrical conductivity,"303 K, x2 = 0.01944, x1 = 0.006623",5.1 ± 0.051 S/m
same,electrical conductivity,"303 K, x2 = 0.05129, x1 = 0.0177",6.85 ± 0.069 S/m
same,electrical conductivity,"303 K, x2 = 0.08265, x1 = 0.02921",6.011 ± 0.06 S/m
same,electrical conductivity,"303 K, x2 = 0.112, x1 = 0.04029",4.67 ± 0.047 S/m
same,electrical conductivity,"303 K, x2 = 0.1395, x1 = 0.05129",3.45 ± 0.035 S/m
same,electrical conductivity,"303 K, x2 = 0.1654, x1 = 0.06203",2.5 ± 0.025 S/m
same,electrical conductivity,"303 K, x2 = 0.1898, x1 = 0.07238",1.79 ± 0.018 S/m
same,electrical conductivity,"303 K, x2 = 0.2128, x1 = 0.08265",1.28 ± 0.013 S/m
same,electrical conductivity,"303 K, x2 = 0.2345, x1 = 0.0927",0.908 ± 0.009 S/m
same,electrical conductivity,"303 K, x2 = 0.2551, x1 = 0.1024",0.643 ± 0.006 S/m
same,electrical conductivity,"303 K, x2 = 0.2745, x1 = 0.112",0.454 ± 0.005 S/m
same,electrical conductivity,"308.1 K, x2 = 0.001799, x1 = 0.0005943",0.961 ± 0.01 S/m
same,electrical conductivity,"308.1 K, x2 = 0.005377, x1 = 0.001799",2.36 ± 0.024 S/m
same,electrical conductivity,"308.1 K, x2 = 0.00893, x1 = 0.003054",3.46 ± 0.035 S/m
same,electrical conductivity,"308.1 K, x2 = 0.01246, x1 = 0.004127",4.36 ± 0.044 S/m
same,electrical conductivity,"308.1 K, x2 = 0.01596, x1 = 0.005377",5.1 ± 0.051 S/m
same,electrical conductivity,"308.1 K, x2 = 0.01944, x1 = 0.006623",5.702 ± 0.057 S/m
same,electrical conductivity,"308.1 K, x2 = 0.05129, x1 = 0.0177",7.67 ± 0.077 S/m
same,electrical conductivity,"308.1 K, x2 = 0.08265, x1 = 0.02921",6.732 ± 0.067 S/m
same,electrical conductivity,"308.1 K, x2 = 0.112, x1 = 0.04029",5.239 ± 0.052 S/m
same,electrical conductivity,"308.1 K, x2 = 0.1395, x1 = 0.05129",3.89 ± 0.039 S/m
same,electrical conductivity,"308.1 K, x2 = 0.1654, x1 = 0.06203",2.839 ± 0.028 S/m
same,electrical conductivity,"308.1 K, x2 = 0.1898, x1 = 0.07238",2.05 ± 0.021 S/m
same,electrical conductivity,"308.1 K, x2 = 0.2128, x1 = 0.08265",1.48 ± 0.015 S/m
same,electrical conductivity,"308.1 K, x2 = 0.2345, x1 = 0.0927",1.06 ± 0.011 S/m
same,electrical conductivity,"308.1 K, x2 = 0.2551, x1 = 0.1024",0.763 ± 0.008 S/m
same,electrical conductivity,"308.1 K, x2 = 0.2745, x1 = 0.112",0.545 ± 0.005 S/m
same,viscosity,"308.15 K, x1 = 0.04029, x2 = 0.1114",5.6 ± 0.5 mPa·s
same,viscosity,"308.15 K, x1 = 0.07222, x2 = 0.1893",20.6 ± 1.7 mPa·s
same,viscosity,"308.15 K, x1 = 0.09226, x2 = 0.2336",45.7 ± 3.7 mPa·s
same,viscosity,"308.15 K, x1 = 0.1024, x2 = 0.2553",63 ± 5 mPa·s
same,viscosity,"308.15 K, x1 = 0.1122, x2 = 0",2.9 ± 0.2 mPa·s
same,viscosity,"308.15 K, x1 = 0.1122, x2 = 0.2745",94.6 ± 7.8 mPa·s
same,viscosity,"308.15 K, x1 = 0.1783, x2 = 0",6.9 ± 0.6 mPa·s
same,viscosity,"308.15 K, x1 = 0.2388, x2 = 0",16 ± 1.3 mPa·s
same,viscosity,"308.15 K, x1 = 0.2541, x2 = 0",22.6 ± 1.8 mPa·s
same,viscosity,"308.15 K, x1 = 0.2743, x2 = 0",32.9 ± 2.6 mPa·s
same,electrical conductivity,"313 K, x2 = 0.001799, x1 = 0.0005943",1.06 ± 0.011 S/m
same,electrical conductivity,"313 K, x2 = 0.005377, x1 = 0.001799",2.61 ± 0.026 S/m
same,electrical conductivity,"313 K, x2 = 0.00893, x1 = 0.003054",3.835 ± 0.038 S/m
same,electrical conductivity,"313 K, x2 = 0.01246, x1 = 0.004127",4.834 ± 0.048 S/m
same,electrical conductivity,"313 K, x2 = 0.01596, x1 = 0.005377",5.66 ± 0.057 S/m
same,electrical conductivity,"313 K, x2 = 0.01944, x1 = 0.006623",6.331 ± 0.063 S/m
same,electrical conductivity,"313 K, x2 = 0.05129, x1 = 0.0177",8.518 ± 0.085 S/m
same,electrical conductivity,"313 K, x2 = 0.08265, x1 = 0.02921",7.48 ± 0.075 S/m
same,electrical conductivity,"313 K, x2 = 0.112, x1 = 0.04029",5.838 ± 0.058 S/m
same,electrical conductivity,"313 K, x2 = 0.1395, x1 = 0.05129",4.36 ± 0.044 S/m
same,electrical conductivity,"313 K, x2 = 0.1654, x1 = 0.06203",3.201 ± 0.032 S/m
same,electrical conductivity,"313 K, x2 = 0.1898, x1 = 0.07238",2.334 ± 0.023 S/m
same,electrical conductivity,"313 K, x2 = 0.2128, x1 = 0.08265",1.7 ± 0.017 S/m
same,electrical conductivity,"313 K, x2 = 0.2345, x1 = 0.0927",1.234 ± 0.012 S/m
same,electrical conductivity,"313 K, x2 = 0.2551, x1 = 0.1024",0.895 ± 0.009 S/m
same,electrical conductivity,"313 K, x2 = 0.2745, x1 = 0.112",0.647 ± 0.006 S/m
